# Measurements: PMC8807399, “Synthesis, Characterization, and in vivo Evaluation of a Novel Potent Autotaxin-Inhibitor” (Frontiers in Pharmacology, 2022)
# Experiments:
# [1] = In vitro microsomal stability, human; format: in vitro ADME; conditions: human microsomes, 1 µM; value of 10 = low clearance, essentially below detection limit
# Procedure: (§1) Incubations of a test compound at a concentration of 1 µM with microsomes (0.5 mg/ml) from the appropriate species (human, mouse, or rat) plus cofactor NADPH were performed in 96-well plates at 37°C on a TECAN automated liquid handling system (Tecan Group Ltd., Männedorf, Switzerland). After pre-incubation of the test compound with the microsomes for 10 min, the enzymatic reaction was started by the addition of cofactors. Aliquots of the incubations are removed at 1, 3, 6, 9, 15, 25, 35, and 45 min and are then quenched with 1:3 (v/v) acetonitrile containing internal standards. Samples were then cooled and centrifuged before analysis of the supernatant by LC-MS/MS. Logarithmic Peak area ratios (test compound peak area/internal standard peak area) were plotted against incubation time and a linear fit made to the data with emphasis upon the initial rate of compound disappearance. The slope of the fit was then used to calculate the intrinsic clearance: Clint (µL/min/mg protein) = −slope (min-1) * 1,000/[protein concentration (mg/ml)].
# [2] = In vitro microsomal stability, rat; format: in vitro ADME; conditions: rat microsomes, 1 µM; value of 10 = low clearance, essentially below detection limit
# Procedure: as §1
# HT-solubility assay = format: physicochemical; conditions: aqueous buffer, thermodynamic from solid; phosphate buffer pH 6.5
# Procedure: This assay was performed on a TECAN station starting from 10 mM DMSO stock solutions of the test compounds. Two aliquots of the test compound were dried and dissolved in phosphate buffer at pH 6.5. Sonication supports optimal re-solubilization. The solutions were then filtered and diluted (3 different dilution levels for each compound) followed by quantification of the dissolved material with Rapid-Fire MS. Quantification was performed for each test compound with a 6-point calibration curve prepared with the same DMSO starting solution.
# Acetylcholinesterase = target: T1, Acetylcholinesterase (Homo sapiens, UniProt P22303); test: Off-target screen Acetylcholinesterase; format: biochemical; conditions: 10 µM; single point, duplicates
# T1 construct: purchased Eurofins CEREP SA
# Glucocorticoid receptor = target: T2, Glucocorticoid receptor (Homo sapiens, UniProt P04150); test: Off-target screen Glucocorticoid receptor; format: binding; conditions: 10 µM; single point, duplicates
# T2 construct: purchased Eurofins CEREP SA
# T2 sequence (P04150 whole entry): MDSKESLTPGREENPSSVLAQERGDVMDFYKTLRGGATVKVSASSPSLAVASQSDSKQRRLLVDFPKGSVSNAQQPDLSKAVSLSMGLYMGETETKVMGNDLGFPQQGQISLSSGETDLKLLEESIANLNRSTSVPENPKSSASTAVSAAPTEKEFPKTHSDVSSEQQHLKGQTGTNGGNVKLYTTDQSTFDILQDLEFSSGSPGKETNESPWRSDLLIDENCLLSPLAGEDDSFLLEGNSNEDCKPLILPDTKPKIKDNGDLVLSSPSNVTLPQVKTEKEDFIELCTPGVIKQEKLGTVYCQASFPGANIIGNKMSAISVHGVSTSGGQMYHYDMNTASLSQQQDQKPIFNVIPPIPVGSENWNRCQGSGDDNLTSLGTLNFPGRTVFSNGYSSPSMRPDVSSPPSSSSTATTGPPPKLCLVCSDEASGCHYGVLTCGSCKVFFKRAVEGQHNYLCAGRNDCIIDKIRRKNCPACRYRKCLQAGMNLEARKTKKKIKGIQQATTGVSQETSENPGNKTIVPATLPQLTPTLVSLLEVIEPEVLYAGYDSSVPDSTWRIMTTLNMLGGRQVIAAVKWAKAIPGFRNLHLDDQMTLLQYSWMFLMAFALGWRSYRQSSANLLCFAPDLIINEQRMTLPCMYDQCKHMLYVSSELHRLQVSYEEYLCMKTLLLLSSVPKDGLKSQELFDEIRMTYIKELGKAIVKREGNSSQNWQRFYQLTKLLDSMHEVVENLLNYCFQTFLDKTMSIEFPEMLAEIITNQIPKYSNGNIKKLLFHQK
# 5HT3 = target: T3, 5HT3 (Homo sapiens, UniProt P46098); test: Off-target screen 5HT3; format: binding; conditions: 10 µM; single point, duplicates
# T3 construct: purchased Eurofins CEREP SA
# T3 sequence (P46098 24-478): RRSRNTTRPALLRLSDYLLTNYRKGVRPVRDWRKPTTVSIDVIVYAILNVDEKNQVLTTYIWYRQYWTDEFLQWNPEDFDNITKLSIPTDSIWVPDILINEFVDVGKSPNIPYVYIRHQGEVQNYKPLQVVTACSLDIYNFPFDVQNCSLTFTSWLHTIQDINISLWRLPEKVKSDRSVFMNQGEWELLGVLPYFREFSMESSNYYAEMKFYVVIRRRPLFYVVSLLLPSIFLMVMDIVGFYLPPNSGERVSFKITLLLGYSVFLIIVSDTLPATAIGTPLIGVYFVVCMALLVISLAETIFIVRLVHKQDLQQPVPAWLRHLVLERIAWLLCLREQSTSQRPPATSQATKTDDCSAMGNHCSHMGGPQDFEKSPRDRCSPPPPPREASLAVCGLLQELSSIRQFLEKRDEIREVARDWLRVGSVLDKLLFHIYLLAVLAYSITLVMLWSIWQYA
# LPA3 receptor = target: T4, LPA3 receptor (Homo sapiens, UniProt Q9UBY5); test: Off-target screen LPA3 receptor, antagonist mode; format: cell-based; conditions: 10 µM, single point, duplicates
# T4 construct: purchased Eurofins CEREP SA
# [3] = tested on: GABA-A (benzodiazepine site); test: Off-target screen GABA-A (benzodiazepine site); conditions: 10 µM; single point, duplicates
# HDAC11 = target: T5, HDAC11 (Homo sapiens, UniProt Q96DB2); test: Off-target screen HDAC11; format: biochemical; conditions: 10 µM; single point, duplicates
# T5 construct: purchased Eurofins CEREP SA
# T5 sequence (Q96DB2 whole entry): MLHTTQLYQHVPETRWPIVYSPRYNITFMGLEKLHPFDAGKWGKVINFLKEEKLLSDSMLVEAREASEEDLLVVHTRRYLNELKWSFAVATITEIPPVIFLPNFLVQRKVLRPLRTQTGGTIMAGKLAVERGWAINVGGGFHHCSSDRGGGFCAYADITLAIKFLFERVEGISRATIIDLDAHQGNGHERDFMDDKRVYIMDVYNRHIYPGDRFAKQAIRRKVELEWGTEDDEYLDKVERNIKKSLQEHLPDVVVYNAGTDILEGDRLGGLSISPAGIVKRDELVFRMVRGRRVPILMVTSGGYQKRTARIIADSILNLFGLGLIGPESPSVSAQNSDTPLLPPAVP
# MMP-1 = target: T6, MMP-1 (Homo sapiens, UniProt P03956); test: Off-target screen MMP-1; format: biochemical; conditions: 10 µM; single point, duplicates
# T6 construct: purchased Eurofins CEREP SA
# T6 sequence (P03956 100-469): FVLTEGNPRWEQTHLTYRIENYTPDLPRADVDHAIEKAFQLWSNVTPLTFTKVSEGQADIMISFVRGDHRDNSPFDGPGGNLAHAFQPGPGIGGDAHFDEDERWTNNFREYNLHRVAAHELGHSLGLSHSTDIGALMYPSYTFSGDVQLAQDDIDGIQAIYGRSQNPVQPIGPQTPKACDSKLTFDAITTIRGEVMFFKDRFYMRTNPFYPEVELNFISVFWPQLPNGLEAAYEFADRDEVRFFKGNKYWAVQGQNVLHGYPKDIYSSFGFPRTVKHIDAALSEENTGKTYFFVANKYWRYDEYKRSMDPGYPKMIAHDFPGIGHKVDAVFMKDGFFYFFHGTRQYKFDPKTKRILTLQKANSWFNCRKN
# [4] = target: Glycine receptor (strychnine insensitive) (Rattus norvegicus, UniProt P35439); test: Off-target screen Glycine receptor (strychnine insensitive); format: binding; conditions: 10 µM; single point, duplicates
# HDAC3 = target: T7, HDAC3 (Homo sapiens, UniProt O15379); test: Off-target screen HDAC3; format: biochemical; conditions: 10 µM; single point, duplicates
# T7 construct: purchased Eurofins CEREP SA
# T7 sequence (O15379 whole entry): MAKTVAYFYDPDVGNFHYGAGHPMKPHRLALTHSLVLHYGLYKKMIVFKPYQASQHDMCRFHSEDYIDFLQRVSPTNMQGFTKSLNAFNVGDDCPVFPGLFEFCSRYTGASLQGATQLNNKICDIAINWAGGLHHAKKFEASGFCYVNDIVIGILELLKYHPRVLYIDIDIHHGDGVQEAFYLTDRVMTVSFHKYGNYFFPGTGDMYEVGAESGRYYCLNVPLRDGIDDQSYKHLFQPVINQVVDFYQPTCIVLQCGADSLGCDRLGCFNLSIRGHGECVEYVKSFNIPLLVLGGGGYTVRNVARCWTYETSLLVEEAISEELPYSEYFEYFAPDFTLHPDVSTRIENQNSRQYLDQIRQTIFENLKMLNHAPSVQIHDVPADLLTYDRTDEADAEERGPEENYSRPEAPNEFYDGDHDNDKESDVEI
# T7 sequence (Q9Y618 395-489 partner limits assumed): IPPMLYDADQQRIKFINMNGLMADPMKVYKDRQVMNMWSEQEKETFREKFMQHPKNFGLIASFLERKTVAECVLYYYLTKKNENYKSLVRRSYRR
# GSK-3A = target: T8, GSK-3A (Homo sapiens, UniProt P49840); test: Off-target screen GSK-3A; format: biochemical; conditions: 10 µM; single point, duplicates
# T8 construct: purchased Eurofins CEREP SA
# PPARγ = target: T9, PPARγ (Homo sapiens, UniProt P37231); test: Off-target screen PPARγ, antagonist mode; format: cell-based; conditions: 10 µM, single point, duplicates
# T9 construct: purchased Eurofins CEREP SA
# T9 sequence (P37231 whole entry): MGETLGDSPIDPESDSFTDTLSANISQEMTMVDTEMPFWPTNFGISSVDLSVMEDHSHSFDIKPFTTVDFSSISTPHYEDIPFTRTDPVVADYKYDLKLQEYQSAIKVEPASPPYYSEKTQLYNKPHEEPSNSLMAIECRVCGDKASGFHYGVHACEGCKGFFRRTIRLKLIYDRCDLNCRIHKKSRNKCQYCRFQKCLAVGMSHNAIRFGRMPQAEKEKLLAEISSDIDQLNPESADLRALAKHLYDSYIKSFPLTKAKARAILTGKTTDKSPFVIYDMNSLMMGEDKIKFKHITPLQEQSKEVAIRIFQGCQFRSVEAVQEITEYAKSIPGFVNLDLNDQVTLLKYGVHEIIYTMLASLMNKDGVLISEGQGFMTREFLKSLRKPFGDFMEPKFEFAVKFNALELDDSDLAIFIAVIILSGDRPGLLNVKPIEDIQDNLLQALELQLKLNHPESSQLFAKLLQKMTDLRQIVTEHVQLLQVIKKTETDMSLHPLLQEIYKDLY
# MAO-B = target: T10, MAO-B (Homo sapiens, UniProt P27338); test: Off-target screen MAO-B; format: biochemical; conditions: 10 µM; single point, duplicates
# T10 construct: purchased Eurofins CEREP SA
# 5HT2a = target: T11, 5HT2a (Homo sapiens, UniProt P28223); test: Off-target screen 5HT2a; format: binding; conditions: 10 µM; single point, duplicates
# T11 construct: purchased Eurofins CEREP SA
# T11 sequence (P28223 whole entry): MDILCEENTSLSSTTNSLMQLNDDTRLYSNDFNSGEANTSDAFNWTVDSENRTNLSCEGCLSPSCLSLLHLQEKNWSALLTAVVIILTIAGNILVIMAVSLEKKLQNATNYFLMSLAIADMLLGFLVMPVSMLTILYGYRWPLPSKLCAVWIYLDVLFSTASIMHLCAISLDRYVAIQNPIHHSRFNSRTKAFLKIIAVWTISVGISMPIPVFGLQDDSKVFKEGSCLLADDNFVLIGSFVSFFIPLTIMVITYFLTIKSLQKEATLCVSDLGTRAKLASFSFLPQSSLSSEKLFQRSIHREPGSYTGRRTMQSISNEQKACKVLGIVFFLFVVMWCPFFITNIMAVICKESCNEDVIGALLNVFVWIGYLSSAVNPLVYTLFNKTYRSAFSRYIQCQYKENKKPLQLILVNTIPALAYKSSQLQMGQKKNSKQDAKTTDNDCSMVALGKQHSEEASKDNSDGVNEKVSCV
# total basal plasma LPA = test: Plasma LPA profile in rat (PK/PD), basal LPA; format: in vivo
# Procedure: Plasma samples were collected in triplicates at 0, 1, 3, 6, and 24 h and were added to heparinated tubes and kept at 0°C until further processing. Sampling and immediate processing at 0°C is crucial for the measurements of basal levels, since at higher temperatures, LPA is produced rapidly according to the ATX activity in the sample. One aliquot was used to determine basal levels of LPAs 16:0, 18:0, 18:1, and 20:4 as well as exposure of 13 by LC-MS/MS. A detailed method for LPA analysis is described in the Supplementary Material Section 1.3. The other 2 aliquots were used to determine ATX activity by incubation of the sample at 37°C for 4 h, followed again by analysis of LPA levels in the same way as for the basal LPA levels. LPA profiles were analyzed using MS Excel (Microsoft Corporation).
# Therefore, modulation of total basal LPA was largely driven by modulation of LPA 20:4 (Figure 2A).
# Histamine H1 receptor = target: T12, Histamine H1 receptor (Homo sapiens, UniProt P35367); test: Off-target screen Histamine H1; format: binding; conditions: 10 µM; single point, duplicates
# T12 construct: purchased Eurofins CEREP SA
# T12 sequence (P35367 whole entry): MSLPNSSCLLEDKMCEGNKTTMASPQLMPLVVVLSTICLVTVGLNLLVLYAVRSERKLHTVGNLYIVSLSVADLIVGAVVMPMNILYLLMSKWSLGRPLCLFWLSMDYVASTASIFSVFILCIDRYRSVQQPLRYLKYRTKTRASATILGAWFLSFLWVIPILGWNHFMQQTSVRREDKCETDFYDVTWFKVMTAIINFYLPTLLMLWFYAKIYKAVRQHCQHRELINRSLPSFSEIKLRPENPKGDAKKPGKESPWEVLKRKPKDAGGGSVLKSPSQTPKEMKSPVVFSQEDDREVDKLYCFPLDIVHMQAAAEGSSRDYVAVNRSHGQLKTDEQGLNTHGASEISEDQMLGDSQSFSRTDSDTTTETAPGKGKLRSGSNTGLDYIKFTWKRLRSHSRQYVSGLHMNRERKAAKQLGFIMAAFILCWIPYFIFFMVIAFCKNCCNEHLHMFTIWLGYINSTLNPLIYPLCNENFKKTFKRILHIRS
# [5] = Glutathione addition screening; format: in vitro ADME; conditions: human liver microsomes + NADPH + GSH
# Procedure: All sample handling was performed based on a 96-well plate format using an automated pipetting system. The test compounds, positive controls (diclofenac, troglitazone, nefazodone, 4-[[1-(4-fluorophenyl)-2-methyl-1H-imidazol-4-yl]ethynyl]-2-methylpyridine) and solvent control (DMSO) were incubated with human liver microsomes supplemented with NADPH and reduced GSH. Stable GSH conjugates whose production can be assumed to be the result of chemically reactive metabolites were detected using a quadrupole time of flight mass spectrometer run in untargeted full scan accurate mass MSE mode (Waters Xevo G1 QTOFMSE; Waters GmbH, Eschborn, Germany). This generic GSH adduct detection method and the assay workflow are taking advantage of the specific fragmentation behavior of the peptide moiety upon collision induced dissociation of GSH adducts and so are largely independent of the conjugate (“X”) itself.
# kappa opioid receptor = target: T13, kappa opioid receptor (Rattus norvegicus, UniProt P34975); test: Off-target screen kappa opioid receptor; format: binding; conditions: 10 µM; single point, duplicates
# T13 construct: purchased Eurofins CEREP SA
# MMP-9 = target: T14, MMP-9 (Homo sapiens, UniProt P14780); test: Off-target screen MMP-9; format: biochemical; conditions: 10 µM; single point, duplicates
# T14 construct: purchased Eurofins CEREP SA
# Adenosine A3 respetor = target: T15, Adenosine A3 respetor (Homo sapiens, UniProt P0DMS8); test: Off-target screen Adenosine A3; format: binding; conditions: 10 µM; single point, duplicates
# T15 construct: purchased Eurofins CEREP SA
# T15 sequence (P0DMS8 whole entry): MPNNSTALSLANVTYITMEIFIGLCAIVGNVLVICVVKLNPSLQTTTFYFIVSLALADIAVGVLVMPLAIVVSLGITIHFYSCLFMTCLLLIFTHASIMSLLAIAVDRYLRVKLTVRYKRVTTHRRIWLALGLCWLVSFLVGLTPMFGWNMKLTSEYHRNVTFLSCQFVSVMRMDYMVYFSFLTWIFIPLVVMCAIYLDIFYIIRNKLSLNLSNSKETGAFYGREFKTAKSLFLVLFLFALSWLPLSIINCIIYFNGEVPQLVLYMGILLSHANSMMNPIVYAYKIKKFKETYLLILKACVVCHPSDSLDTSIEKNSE
# [6] = tested on: Nicotinic receptor (muscle); test: Off-target screen Nicotinic receptor (muscle); conditions: 10 µM; single point, duplicates
# mu opioid receptor = target: T16, mu opioid receptor (Homo sapiens, UniProt P35372); test: Off-target screen mu opioid receptor; format: binding; conditions: 10 µM; single point, duplicates
# T16 construct: purchased Eurofins CEREP SA
# T16 sequence (P35372 whole entry): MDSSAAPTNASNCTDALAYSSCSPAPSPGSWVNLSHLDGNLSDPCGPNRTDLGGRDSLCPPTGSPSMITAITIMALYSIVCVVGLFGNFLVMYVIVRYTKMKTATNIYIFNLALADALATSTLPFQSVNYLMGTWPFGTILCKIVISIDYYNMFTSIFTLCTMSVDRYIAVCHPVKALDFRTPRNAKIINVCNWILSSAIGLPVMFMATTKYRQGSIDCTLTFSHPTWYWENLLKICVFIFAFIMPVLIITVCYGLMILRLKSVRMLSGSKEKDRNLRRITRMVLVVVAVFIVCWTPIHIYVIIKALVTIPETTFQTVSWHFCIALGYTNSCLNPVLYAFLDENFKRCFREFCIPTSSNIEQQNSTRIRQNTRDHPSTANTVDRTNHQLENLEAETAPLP
smiles,measurement,setting,value
"O=C(OCc1ccc(OC(F)(F)F)cc1)N1C[C@@H]2CN(C(=O)c3ccc4[nH]nnc4c3)C[C@H]2C1 [Compound 13, (3aS,6aS)-5-(1H-Benzotriazole-5-carbonyl)-hexahydro-pyrrolo[3,4-c]pyrrole-2-carboxylic acid 4-trifluoromethoxy-benzyl ester]",Mic CL h,[1],10/10/10 µL/m/mg prot
same,Mic CL r,[2],10/10/10 µL/m/mg prot
same,solubility,HT-solubility assay,28 µg/mL
same,Acetylcholinesterase (h) [% inhib],Acetylcholinesterase,-23 % inhib
same,Glucocorticoid receptor (h) [% inhib],Glucocorticoid receptor,6 % inhib
same,5HT3 (h) [% inhib],5HT3,-2 % inhib
same,"LPA3 receptor (h), antago. mode [% inhib]",LPA3 receptor,56 % inhib
same,GABA-A (benzodiazepine site) (r) [% inhib],[3],-26 % inhib
same,HDAC11 (h) [% inhib],HDAC11,0 % inhib
same,MMP-1 (h) [% inhib],MMP-1,-9 % inhib
same,Glycine receptor (strychnine insensitive) (r) [% inhib],[4],17 % inhib
same,HDAC3 (h) [% inhib],HDAC3,1 % inhib
same,GSK-3A (h) [% inhib],GSK-3A,-11 % inhib
same,"PPARγ (h), antago. mode [% inhib]",PPARγ,6 % inhib
same,MAO-B (h) [% inhib],MAO-B,6 % inhib
same,5HT2a (h) [% inhib],5HT2a,39 % inhib
same,IC50,"total basal plasma LPA; Rattus norvegicus, free plasma concentration, male Wistar rats, 3, 10, 30 mg/kg po, sum of LPA 16:0, 18:0, 18:1, 20:4, read-out: IC50 for the lowering of total basal LPA",~3.2 ng/mL
same,Estimated average ATX inhibition,"total basal plasma LPA; rat, food admix 20 mg/kg, 2-weeks study at steady state, estimated from PK/PD relationship",> 75%
same,Histamine H1 receptor (h) [% inhib],Histamine H1 receptor,5 % inhib
same,GSH adducts,[5],Neg
same,kappa opioid receptor (r) [% inhib],kappa opioid receptor,-1 % inhib
same,MMP-9 (h) [% inhib],MMP-9,-22 % inhib
same,Adenosine A3 respetor (h) [% inhib],Adenosine A3 respetor,33 % inhib
same,Nicotinic receptor (muscle) (h) [% inhib],[6],3 % inhib
same,mu opioid receptor (h) [% inhib],mu opioid receptor,15 % inhib
